Like-named read-outs stand apart in the source and are kept apart here.
Key:
[1] = cited from earlier work
[2] = tested on: British guinea pigs; format: in vivo; conditions: single skin application 0.2 mL/site, irradiation 10±1 J/cm^2, observed to 72 hours
Procedure: Phototoxicity of midostaurin cream was tested using British guinea pigs as a model. Male guinea pigs were randomly divided into groups and given a single skin application of physiological saline (negative control), 8-MOP (positive control), 1.0% midostaurin cream, and midostaurin cream blank matrix. The dose given is 0.2 mL/site and the administration site was fixed after the treatment was applied. After 0.5 hours, the administration site was irradiated by the sunlight simulator of Dr. Hönle AG (SOL500) to reach the specified irradiation amount of 10±1 J/cm^2. The irradiance was measured with a UV radiometer equipped with type UVA FO from Dr. Hönle AG. The first day of dosing is designated as day 1 of the trial (Day 1). After the irradiation, the skin irritation of the administration site was observed and scored at 1+0.5 hours, 24 hours, 48 hours and 72 hours, respectively.

[3] = Equilibrium solubility of midostaurin in different solvents (HPLC); format: physicochemical; conditions: thermodynamic from solid, 25° C., 24-72 hours
Procedure: Many different solvents were evaluated for their compatibility with midostaurin. […] Solubility was measured by HPLC.

[4] = Solubility of midostaurin in solubilizer-water mixture systems; format: physicochemical; conditions: solubilizer-water mixtures, aqueous with cosolvent or surfactant or cyclodextrin, thermodynamic from solid, Transcutol, Labrasol, Tween 80, Cremphor EL, Kolliphor HS15 at 10%, 20%, 30% v/v in water, 25° C.
Procedure: The solubility of midostaurin in a system with water and a solubilizer combined at a certain ratio was also evaluated. The method involves adding excess amorphous midostaurin powders into various concentrations of solubilizer and water systems and mixed for 24 hours at 25° C. with 600 rpm to ensure equilibrium was achieved. Solubilizers selected for this study include Transcutol, Labrasol, Tween 80, Cremphor EL, and Kolliphor HS15. Each solubilizer is mixed with water at 10%, 20%, and 30% v/v, respectively, to form a system where amorphous midostaurin power was dissolved.

[5] = Excipient compatibility study (impurities by HPLC); format: physicochemical; conditions: 1:200 (w/w), 60° C. for 10 days
Procedure: Midostaurin was mixed with many excipients used in topical formulations at 1:200 (w/w) and was placed at 60° C. for 10 days before testing.

| Compound | log P [1] | phototoxicity (edema and erythema at administration site after UV irradiation) [2] | solubility ([3]; oil or lipid, corn oil, read-out: solubility in corn oil) [µg/mL] | solubility ([3]; oil or lipid, soybean oil, read-out: solubility in soybean oil) [µg/mL] | solubility ([3]; organic solvent or mixture, Labrasol, read-out: solubility in Labrasol) [µg/mL] | solubility ([3]; organic solvent or mixture, Tween 80, read-out: solubility in Tween 80) [µg/mL] | solubility ([3]; organic solvent or mixture, ethanol, read-out: solubility in ethanol) [µg/mL] | solubility ([3]; organic solvent or mixture, glycerol, read-out: solubility in glycerol) [µg/mL] | solubility at 24 h [4] [µg/mL] | Impurity results (%) RRT 0.91 [5] [%] | Impurity results (%) RRT 0.93 [5] [%] | Impurity results (%) RRT 0.97 [5] [%] | Impurity results (%) RRT 1.00 (midostaurin assay content) [5] [%] | Impurity results (%) RRT 1.10 [5] [%] |
| --- | --- | --- | --- | --- | --- | --- | --- | --- | --- | --- | --- | --- | --- | --- |
| Oc1ccc(O)cc1 [Hydroquinone, hydroquinone] | 1.09 | – | – | – | – | – | – | – | – | – | – | – | – | – |
| COc1c2occc2cc2ccc(=O)oc12 [Lot 8-MOP] | – | Edema and erythema | – | – | – | – | – | – | – | – | – | – | – | – |
| CO[C@@H]1[C@H](N(C)C(=O)c2ccccc2)C[C@H]2O[C@]1(C)n1c3ccccc3c3c4c(c5c6ccccc6n2c5c31)C(=O)NC4 [Midostaurin, midostaurin] | 5.27 | – | < 10000 | < 10000 | > 50000 | > 50000 | < 10000 | < 10000 | < 10000 | 0.07 | 0.11 | 0.12 | 99.64 | 0.06 |

Source: patent US20250375457A1, “TOPICAL PHARMACEUTICAL COMPOSITIONS AND USES THEREOF” (Shenzhen Pharmacin Co., Ltd., priority 2022, published 2025)
